Experimental data from ChEMBL document CHEMBL1201862, “PubChem BioAssay data set” (2004).
Calls of active or inactive are those of the source.

Tests used:
[1] = tested on: HEK293; assay: cells; format: functional, cell-based; conditions: Homo sapiens
[2] = target: Nuclear receptor subfamily 0 group B member 1 (Homo sapiens, UniProt P51843); assay: Luminescence-based cell-based high throughput dose response assay for inhibitors of the orphan nuclear receptor subfamily 0, group B, member 1 (DAX1; NR0B1). [Related pubchem assays (depositor defined):AID504766, AID504790]; format: functional
Chain of Nuclear receptor subfamily 0 group B member 1 (P51843 whole entry): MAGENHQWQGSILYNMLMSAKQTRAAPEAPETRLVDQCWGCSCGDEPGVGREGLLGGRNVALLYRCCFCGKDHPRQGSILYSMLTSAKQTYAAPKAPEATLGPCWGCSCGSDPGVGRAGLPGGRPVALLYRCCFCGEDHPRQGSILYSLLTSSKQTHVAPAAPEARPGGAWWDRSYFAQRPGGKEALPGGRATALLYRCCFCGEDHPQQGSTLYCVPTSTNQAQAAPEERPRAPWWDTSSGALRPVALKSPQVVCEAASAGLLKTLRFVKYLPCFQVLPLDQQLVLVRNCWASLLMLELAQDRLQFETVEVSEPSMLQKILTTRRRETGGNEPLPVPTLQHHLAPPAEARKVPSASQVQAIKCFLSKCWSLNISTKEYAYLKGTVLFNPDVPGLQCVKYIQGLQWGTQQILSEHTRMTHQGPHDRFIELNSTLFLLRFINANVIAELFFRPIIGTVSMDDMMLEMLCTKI

[3] = target: T1, Tyrosine-protein phosphatase non-receptor type 7 (Homo sapiens, UniProt P35236); format: functional
T1 sequence (P35236 whole entry): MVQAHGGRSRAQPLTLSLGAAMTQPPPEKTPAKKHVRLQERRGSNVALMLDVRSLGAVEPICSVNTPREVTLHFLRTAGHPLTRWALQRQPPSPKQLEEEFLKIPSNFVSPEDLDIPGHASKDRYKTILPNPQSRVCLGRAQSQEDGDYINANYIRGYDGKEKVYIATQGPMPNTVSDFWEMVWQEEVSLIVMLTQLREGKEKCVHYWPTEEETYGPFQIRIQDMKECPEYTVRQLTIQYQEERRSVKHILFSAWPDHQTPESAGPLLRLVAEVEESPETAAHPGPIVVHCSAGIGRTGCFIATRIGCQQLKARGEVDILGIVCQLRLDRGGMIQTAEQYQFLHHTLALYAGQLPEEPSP

[4] = target: T2, Dual specificity protein phosphatase 6 (Rattus norvegicus, UniProt Q64346); format: functional
T2 sequence (Q64346 whole entry): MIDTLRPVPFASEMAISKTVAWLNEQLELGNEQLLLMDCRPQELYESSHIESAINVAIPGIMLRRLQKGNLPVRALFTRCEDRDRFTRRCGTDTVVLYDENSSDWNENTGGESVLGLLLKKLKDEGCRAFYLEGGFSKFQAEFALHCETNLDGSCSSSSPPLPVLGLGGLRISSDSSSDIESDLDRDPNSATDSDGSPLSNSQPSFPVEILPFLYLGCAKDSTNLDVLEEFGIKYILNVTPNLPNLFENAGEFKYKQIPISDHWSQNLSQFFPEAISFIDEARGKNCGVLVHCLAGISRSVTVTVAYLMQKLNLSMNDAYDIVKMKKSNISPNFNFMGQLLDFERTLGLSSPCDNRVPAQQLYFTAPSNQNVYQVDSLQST

[5] = target: Glyceraldehyde-3-phosphate dehydrogenase (Homo sapiens, UniProt P04406)
[6] = target: T2, Dual specificity protein phosphatase 6
[7] = target: Transitional endoplasmic reticulum ATPase (Homo sapiens, UniProt P55072); assay: p97 ATPase inhibitors, dose response, biochemical (AID 1534)
Chain of Transitional endoplasmic reticulum ATPase (Homo sapiens, UniProt P55072) (P55072 whole entry): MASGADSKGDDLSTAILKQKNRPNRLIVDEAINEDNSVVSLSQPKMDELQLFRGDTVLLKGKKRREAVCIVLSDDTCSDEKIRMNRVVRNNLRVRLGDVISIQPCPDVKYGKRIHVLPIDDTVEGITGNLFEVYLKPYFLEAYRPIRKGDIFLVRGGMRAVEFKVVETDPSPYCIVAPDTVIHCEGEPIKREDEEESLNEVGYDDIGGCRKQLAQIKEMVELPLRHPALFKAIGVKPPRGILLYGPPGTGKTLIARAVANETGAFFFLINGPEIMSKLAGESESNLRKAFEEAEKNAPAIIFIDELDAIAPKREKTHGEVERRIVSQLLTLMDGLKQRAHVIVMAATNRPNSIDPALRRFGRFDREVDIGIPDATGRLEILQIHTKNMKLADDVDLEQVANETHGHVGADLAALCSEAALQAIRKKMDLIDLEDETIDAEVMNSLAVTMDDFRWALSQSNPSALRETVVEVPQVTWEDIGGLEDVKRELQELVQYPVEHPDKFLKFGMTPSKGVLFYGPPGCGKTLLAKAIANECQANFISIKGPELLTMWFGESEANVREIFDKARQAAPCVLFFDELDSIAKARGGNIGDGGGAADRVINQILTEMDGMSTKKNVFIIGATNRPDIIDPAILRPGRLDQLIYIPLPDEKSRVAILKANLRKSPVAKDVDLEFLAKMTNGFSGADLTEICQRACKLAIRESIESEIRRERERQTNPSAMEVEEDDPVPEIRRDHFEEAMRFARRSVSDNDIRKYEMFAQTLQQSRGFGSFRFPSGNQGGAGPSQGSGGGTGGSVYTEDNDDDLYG

[8] = target: Transitional endoplasmic reticulum ATPase (Homo sapiens, UniProt P55072, C522A); assay: C522A mutant p97 ATPase inhibitors, dose response, counter-screen for p97 inhibitor project, biochemical, luminescence (AID 1544)
Chain of Transitional endoplasmic reticulum ATPase (Homo sapiens, UniProt P55072, C522A) (P55072 2-806 C522A limits assumed): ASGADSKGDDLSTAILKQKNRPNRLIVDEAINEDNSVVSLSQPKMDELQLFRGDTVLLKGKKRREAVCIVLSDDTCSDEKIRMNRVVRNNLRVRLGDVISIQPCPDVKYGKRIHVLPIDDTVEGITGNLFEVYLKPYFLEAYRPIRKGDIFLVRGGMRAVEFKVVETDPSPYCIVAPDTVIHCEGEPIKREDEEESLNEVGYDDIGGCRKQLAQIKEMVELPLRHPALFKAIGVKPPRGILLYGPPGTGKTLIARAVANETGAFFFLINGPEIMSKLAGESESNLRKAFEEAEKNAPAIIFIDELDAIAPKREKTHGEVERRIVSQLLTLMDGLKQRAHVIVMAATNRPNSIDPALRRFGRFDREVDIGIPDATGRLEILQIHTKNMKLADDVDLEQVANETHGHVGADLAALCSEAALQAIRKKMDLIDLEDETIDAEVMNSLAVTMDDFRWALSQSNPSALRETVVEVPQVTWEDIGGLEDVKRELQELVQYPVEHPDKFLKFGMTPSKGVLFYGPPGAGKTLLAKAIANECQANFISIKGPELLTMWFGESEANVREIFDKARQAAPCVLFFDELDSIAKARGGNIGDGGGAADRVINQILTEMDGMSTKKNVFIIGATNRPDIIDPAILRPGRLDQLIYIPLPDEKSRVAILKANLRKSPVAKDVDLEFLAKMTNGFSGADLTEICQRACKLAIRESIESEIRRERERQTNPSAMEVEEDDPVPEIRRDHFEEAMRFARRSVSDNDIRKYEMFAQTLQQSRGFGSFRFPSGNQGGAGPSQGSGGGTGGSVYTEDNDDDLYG

[9] = target: T3, Polyadenylate-binding protein 1 (Homo sapiens, UniProt P11940); assay: PABP1 MLLE–PAM2 binding inhibitor potency, dose response, biochemical, fluorescence polarization, FITC-PAM2 peptide (AID 602259); format: functional; conditions: read-out: IC50_Mean
T3 sequence (P11940 whole entry): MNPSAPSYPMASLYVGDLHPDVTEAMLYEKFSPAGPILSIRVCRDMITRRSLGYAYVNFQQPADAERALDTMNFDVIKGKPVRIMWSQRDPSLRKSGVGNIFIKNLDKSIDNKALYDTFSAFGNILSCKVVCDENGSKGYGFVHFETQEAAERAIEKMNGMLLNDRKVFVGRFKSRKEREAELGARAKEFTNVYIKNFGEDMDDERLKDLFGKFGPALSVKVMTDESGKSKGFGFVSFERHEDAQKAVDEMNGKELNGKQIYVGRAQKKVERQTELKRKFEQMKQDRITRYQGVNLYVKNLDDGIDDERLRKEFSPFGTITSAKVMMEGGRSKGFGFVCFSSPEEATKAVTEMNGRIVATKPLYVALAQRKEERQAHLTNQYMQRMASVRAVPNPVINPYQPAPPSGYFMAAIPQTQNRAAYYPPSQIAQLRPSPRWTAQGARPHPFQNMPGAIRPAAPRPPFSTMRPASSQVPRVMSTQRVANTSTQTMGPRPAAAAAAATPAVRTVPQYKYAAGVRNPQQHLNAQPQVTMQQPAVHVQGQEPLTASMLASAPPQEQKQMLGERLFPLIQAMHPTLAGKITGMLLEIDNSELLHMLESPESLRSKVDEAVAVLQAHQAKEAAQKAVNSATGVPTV

[10] = target: Glucose-6-phosphate 1-dehydrogenase (Homo sapiens, UniProt P11413); assay: human G6PD enzyme inhibitors, dose response, selectivity assay for P. falciparum G6PD inhibitor project, biochemical, fluorescence (AID 504792); format: functional
[11] = target: T4, Caspase-6 (Homo sapiens, UniProt P55212); assay: human caspase-6 inhibitors, dose response, biochemical, VEID-R110 fluorescence, cherry-pick (AID 720632)
T4 sequence (P55212 whole entry): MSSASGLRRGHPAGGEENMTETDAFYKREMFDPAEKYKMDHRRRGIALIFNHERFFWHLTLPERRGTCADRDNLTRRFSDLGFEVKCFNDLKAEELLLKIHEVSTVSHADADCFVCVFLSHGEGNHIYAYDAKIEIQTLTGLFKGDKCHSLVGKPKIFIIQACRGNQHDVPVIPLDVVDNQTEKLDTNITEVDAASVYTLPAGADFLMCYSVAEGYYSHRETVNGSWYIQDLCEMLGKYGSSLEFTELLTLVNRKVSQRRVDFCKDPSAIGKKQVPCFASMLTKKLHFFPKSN

[12] = target: Genome polyprotein (dengue virus type 2, UniProt P29990); assay: Dengue-2 NS5 methyltransferase inhibitors, primary screen, biochemical, confirmation dose response (AID 588689); format: functional
Chain of Genome polyprotein (P29990 2492-3391 limits assumed): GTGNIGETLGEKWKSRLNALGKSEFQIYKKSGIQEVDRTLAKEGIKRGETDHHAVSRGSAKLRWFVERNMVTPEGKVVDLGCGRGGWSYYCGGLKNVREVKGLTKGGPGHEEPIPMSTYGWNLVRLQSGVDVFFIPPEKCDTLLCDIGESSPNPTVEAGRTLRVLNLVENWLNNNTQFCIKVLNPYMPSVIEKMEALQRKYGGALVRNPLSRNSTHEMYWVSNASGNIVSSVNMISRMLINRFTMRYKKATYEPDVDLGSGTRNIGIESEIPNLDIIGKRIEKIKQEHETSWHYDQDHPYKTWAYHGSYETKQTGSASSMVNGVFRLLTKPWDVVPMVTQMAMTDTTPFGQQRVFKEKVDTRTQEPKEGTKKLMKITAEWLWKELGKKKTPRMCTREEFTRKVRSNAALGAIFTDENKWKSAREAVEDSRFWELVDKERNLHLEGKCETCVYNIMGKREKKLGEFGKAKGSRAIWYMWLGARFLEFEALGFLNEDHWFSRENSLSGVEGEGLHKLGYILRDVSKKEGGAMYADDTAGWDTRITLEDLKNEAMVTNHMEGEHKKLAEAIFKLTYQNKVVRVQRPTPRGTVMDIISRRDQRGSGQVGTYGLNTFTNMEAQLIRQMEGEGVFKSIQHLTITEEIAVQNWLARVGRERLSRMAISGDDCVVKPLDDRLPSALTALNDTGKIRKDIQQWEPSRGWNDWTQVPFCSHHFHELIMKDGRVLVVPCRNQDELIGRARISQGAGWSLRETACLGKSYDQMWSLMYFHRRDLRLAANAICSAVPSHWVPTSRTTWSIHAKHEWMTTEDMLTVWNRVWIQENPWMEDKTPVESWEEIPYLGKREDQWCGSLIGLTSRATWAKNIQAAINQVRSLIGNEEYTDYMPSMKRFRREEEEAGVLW

[13] = target: Beta-arrestin-1 (Homo sapiens, UniProt P49407); assay: inhibitors of arrestin peptide binding to AP2, dose response, biochemical, cherry pick 1, beta2-adaptin appendage, flow cytometry (AID 588783); format: functional
Chain of Beta-arrestin-1 (P49407 whole entry): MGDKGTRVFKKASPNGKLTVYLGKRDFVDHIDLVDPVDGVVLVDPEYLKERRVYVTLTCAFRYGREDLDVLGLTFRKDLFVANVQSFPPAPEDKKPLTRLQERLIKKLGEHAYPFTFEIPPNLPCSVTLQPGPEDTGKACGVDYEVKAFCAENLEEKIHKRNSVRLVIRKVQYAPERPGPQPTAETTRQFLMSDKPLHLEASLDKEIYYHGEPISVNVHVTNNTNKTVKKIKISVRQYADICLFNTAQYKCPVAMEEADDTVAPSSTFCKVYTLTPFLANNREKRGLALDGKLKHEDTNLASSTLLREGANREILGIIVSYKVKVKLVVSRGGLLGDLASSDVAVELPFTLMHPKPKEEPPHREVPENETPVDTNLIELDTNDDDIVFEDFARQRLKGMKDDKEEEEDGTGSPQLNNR

[14] = target: T3, Polyadenylate-binding protein 1; assay: PABP1 MLLE–PAM2 interaction inhibitors, dose response, miRNA deadenylation inhibitor project, biochemical, fluorescence polarization, Cy5-PAM2 peptide, secondary (AID 602260); format: functional; conditions: read-out: IC50_Mean
[15] = Late-stage probe development counterscreen for inhibitors of the Hepatitis C Virus non-structural protein 3 helicase (NS3): luminescence-based cell-based dose response assay to determine whether compounds that inhibit replication of HCV RNA replicon are cytotoxic. [Related pubchem assays (depositor defined):AID1800, AID1830, AID1845, AID1943, AID1945, AID2172, AID2173, AID2474, AID2476]; format: functional
[16] = target: NS3 (Hepatitis C virus, UniProt A3EZJ3); assay: PubChem AID 2173; parameters: species or system Hepacivirus hominis
Chain of NS3 (A3EZJ3 whole entry): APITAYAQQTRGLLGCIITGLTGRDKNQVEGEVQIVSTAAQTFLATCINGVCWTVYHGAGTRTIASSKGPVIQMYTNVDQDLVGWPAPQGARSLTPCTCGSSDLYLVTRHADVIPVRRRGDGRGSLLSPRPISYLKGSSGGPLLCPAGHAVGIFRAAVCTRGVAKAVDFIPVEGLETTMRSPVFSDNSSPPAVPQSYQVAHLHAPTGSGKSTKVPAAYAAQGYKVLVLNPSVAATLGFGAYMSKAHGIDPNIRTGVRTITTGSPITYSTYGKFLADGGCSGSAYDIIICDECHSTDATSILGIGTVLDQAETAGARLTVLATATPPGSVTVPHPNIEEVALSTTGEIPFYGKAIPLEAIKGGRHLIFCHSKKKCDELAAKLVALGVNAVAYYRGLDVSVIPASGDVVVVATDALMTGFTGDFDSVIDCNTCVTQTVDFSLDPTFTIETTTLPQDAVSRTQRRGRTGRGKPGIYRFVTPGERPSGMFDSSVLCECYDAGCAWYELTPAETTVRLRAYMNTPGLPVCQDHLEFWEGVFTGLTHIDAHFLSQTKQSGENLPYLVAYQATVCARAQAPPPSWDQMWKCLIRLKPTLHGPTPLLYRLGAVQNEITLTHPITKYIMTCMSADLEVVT

[17] = target: T5, CAAX prenyl protease 2 (Saccharomyces cerevisiae S288c, UniProt Q03530); assay: yeast Rce1 CaaX protease inhibitors, dose response, biochemical, plate reader, dry powder retest (AID 588851)
T5 sequence (Q03530 whole entry): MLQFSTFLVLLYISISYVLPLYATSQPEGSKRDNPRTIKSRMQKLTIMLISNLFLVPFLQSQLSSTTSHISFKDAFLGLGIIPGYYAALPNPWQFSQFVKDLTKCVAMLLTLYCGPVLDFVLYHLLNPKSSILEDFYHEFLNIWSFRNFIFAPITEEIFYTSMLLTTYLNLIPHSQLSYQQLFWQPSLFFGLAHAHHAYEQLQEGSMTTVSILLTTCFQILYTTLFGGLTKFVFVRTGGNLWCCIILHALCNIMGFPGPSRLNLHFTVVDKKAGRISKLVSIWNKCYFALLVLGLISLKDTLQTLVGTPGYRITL

[18] = target: T5, CAAX prenyl protease 2; format: biochemical
[19] = target: CAAX prenyl protease 2 (Homo sapiens, UniProt Q9Y256); assay: human Rce1 protease inhibitors, dose response, biochemical, yeast membranes, quenched-peptide fluorescence, cherry-pick (AID 588849)
Chain of CAAX prenyl protease 2 (Homo sapiens, UniProt Q9Y256) (Q9Y256 whole entry): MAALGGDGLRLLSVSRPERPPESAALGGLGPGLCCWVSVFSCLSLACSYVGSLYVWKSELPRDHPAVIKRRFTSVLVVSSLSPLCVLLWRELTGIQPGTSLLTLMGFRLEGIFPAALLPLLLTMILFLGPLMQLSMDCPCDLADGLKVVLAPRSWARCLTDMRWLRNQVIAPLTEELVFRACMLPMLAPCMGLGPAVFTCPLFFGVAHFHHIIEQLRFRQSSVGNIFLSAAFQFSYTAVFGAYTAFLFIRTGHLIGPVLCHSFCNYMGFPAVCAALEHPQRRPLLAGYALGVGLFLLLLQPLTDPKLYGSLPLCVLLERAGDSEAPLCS

[20] = target: Voltage-gated inwardly rectifying potassium channel KCNH2 (Homo sapiens, UniProt Q12809); conditions: Potency;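 also: confirmatory quantitative high-throughput screen measuring inhibition of hERG channel activity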
[21] = target: T6, Rac GTPase-activating protein 1 (Homo sapiens, UniProt Q9H0H5); assay: MgcRacGAP GTPase-activating activity inhibitors, confirmation, biochemical, ADP Hunter fluorescence, primary and confirmatory (AID 624330); format: functional
T6 sequence (Q9H0H5 whole entry): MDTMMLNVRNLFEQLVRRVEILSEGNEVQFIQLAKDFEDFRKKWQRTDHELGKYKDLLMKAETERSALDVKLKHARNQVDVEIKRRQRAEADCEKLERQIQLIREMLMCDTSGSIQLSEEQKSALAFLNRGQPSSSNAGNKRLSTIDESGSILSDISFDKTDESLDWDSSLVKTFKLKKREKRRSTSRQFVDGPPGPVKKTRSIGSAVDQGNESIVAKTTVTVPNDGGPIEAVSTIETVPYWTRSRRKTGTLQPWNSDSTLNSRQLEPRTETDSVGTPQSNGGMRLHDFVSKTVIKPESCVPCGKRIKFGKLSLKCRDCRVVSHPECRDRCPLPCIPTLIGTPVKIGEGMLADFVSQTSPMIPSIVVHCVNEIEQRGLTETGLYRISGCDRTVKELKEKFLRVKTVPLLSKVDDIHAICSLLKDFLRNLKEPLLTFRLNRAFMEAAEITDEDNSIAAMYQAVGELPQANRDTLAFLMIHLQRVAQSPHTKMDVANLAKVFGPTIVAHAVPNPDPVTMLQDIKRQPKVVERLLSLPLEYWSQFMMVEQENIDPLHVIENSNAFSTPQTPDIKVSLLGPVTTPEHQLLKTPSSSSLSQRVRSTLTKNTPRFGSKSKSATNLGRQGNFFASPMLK

[22] = HeLa cell cytotoxicity, dose response, cytotoxicity control for MgcRacGAP inhibitor project (AID 624300); format: functional
[23] = insulin promoter down-regulators in MIN6 cells, imaging, high-content screening, mouse beta cells (AID 1628); format: functional
[24] = cytotoxicity in MIN6 insulinoma cells, dose response, cytotoxicity control, cell-based, mouse insulinoma (AID 2122); format: functional;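 also: confirmatory high-throughput counterscreen run to flag cytotoxic compounds; mouse MIN-6 beta cells carrying an insulin promoter eGFP reporter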
[25] = tested on: Candida albicans; assay: fluconazole resistance reversal in C. albicans, dose response, CaCi-2 strain, Alamar Blue, dry powder, set 4 (AID 488943); format: functional, organism-based
[26] = tested on: Candida albicans; assay: growth inhibition of resistant C. albicans, dose response, CaCi-8, fluconazole, Alamar Blue, dry powder (AID 488807); format: functional, organism-based
[27] = tested on: NIH3T3; assay: cytotoxicity in NIH-3T3 fibroblasts, dose response, cytotoxicity control for antifungal drug resistance project, cell-based, Alamar Blue, fluconazole, dry powder (AID 488809); format: functional; conditions: Mus musculus
[28] = tested on: Candida albicans; assay: growth inhibition of resistant C. albicans, dose response, CaCi-8 strain, fluconazole, dry powder, set 4 (AID 488950); format: functional, organism-based
[29] = cytotoxicity in HEK-293T NF-kB-Luc cells, dose response, cytotoxicity control for B/T-cell NF-kB inhibitor project, cell-based, uHTS hits (AID 489019); format: functional;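 also: IC50 reflects cytotoxicity as loss of cell viability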
[30] = tested on: Jurkat; assay: antigen receptor-induced NF-kB inhibitors, dose response, Jurkat, luciferase reporter, luminescence, B- and T-cell (AID 489004); format: functional, cell-based; conditions: Homo sapiens;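 also: NF-kB luciferase reporter Jurkat cells stimulated with PMA plus ionomycin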

COc1cc(C(=O)O)cc(OC)c1OC [3,4,5-TRIMETHOXYBENZOIC ACID]
IC50 [1]: > 67.5 µM (inactive)
IC50 [2]: > 67.5 µM (inactive)

CCOC(=O)C1Nc2c(OC)cccc2C2OCCCC12 (stereo not given)
IC50 [3]: > 100 µM (not active)
IC50 [4]: > 100 µM (inactive)
IC50 [5]: > 100 µM (not active)
IC50 [6]: > 100 µM (inactive)

NS(=O)(=O)c1ccc(N/N=C/c2ccc(O)c(O)c2O)c([N+](=O)[O-])c1
IC50 [7]: > 50 µM (not active)
IC50 [8]: > 50 µM (not active)
IC50 [9]: > 66 µM (inactive)
IC50 [10]: > 80 µM (inactive)
AC50 [11]: 0.351 µM (active)
IC50 [12]: 4.59 µM (active)
IC50 [13]: 11 µM (active)
IC50 [14]: > 66 µM (inactive)

COc1cc(C2C(C(=O)c3ccc(C)o3)=C(O)C(=O)N2c2cc(C)on2)ccc1OCc1ccccc1 (stereo not given)
CC50 [15]: > 100 µM (inactive)
IC50 [16]: 2.68 µM (active)

CCOc1cccc(-c2c(C(=O)N/N=C/c3cccs3)nnn2-c2nonc2N)c1
AC50 [17]: 37.1 µM (active)
AC50 [18]: 1.53 µM (active)
AC50 [19]: 15.3 µM (active)

NCCNC(=O)c1ncsc1-c1cccc(F)c1
AC50 [20]: 35.5 µM (inconclusive)

COc1ccc(-c2nc(-c3ccc(O)cc3O)cs2)cc1OC
IC50 [21]: 55.1 µM (active)
CC50 [22]: 74.7 µM (active)
IC50 [23]: 4.5 µM (active)
IC50 [24]: 14.1 µM (inactive)

O=C(c1cccs1)N1CCN(c2ccnc3cc(Cl)ccc23)CC1
AC50 [25]: 1.71 µM (active)
AC50 [26]: 5.31 µM (active)
AC50 [27]: 17.9 µM (active)
AC50 [28]: 2.96 µM (active)

C[C@H](NC(=O)c1nc[nH]c1C(=O)N[C@@H](C)C(=O)OCc1ccccc1)C(=O)OCc1ccccc1
IC50 [29]: > 80 µM (inactive)
IC50 [30]: 73.6 µM (inactive)
